# Source: patent US7345091B2, “Carotenoid ether analogs or derivatives for the inhibition and amelioration of disease” (Cardax Pharmaceuticals, Inc., priority 2002, dated 2008)
# Entries after “also recorded” stand apart in the source; their conditions may differ. Where a name gives a salt, the structure may show the parent alone.
# Assays:
# C3H/10T1/2 cells = test: Assembly of Cx43 into plaques (immunofluorescent staining); format: cell-based, mouse; settings: 1×10^-5 M in 1:2 EtOH/H2O, 4 days
# Description: In this experiment expression and assembly of Cx43 into plaques was assessed by immunofluorescent staining. Procedures were essentially as described in Zhang (1992). Briefly, confluent cultures of C3H/10T1/2 cells were grown on Permanox plastic 4-chamber slides (Nalge Nunc International, Naperville, Ill.) and treated for 4 days with: (1) the disodium salt disuccinate astaxanthin derivative XVI (statistical mixture of stereoisomers) dissolved in a 1:2 EtOH/H2O formulation; (2) the retinoid TTNPB at 1×10^−8 M in tetrahydrofuran as a positive control; or (3) 1:2 EtOH/H2O as a solvent control. Cells were fixed with −20° C. methanol overnight, washed in buffer, blocked in 1% bovine serum albumin (Sigma, St, Louis, Mo.) in PBS, and incubated with the rabbit polyclonal anti-Cx43 antibody (Zymed, San Francisco, Calif.) as in (2) above and detected with Alexa568 conjugated anti-rabbit secondary (Molecular Probes, Eugene, Oreg.). Slides were illuminated with […] light and images were acquired at a wavelength of 600 nm using the Zeiss Axioscope light microscope and a Roper Scientific cooled CCD camera. […] In cultures treated with solvent as control, such immunoreactive plaques were infrequent and were smaller than those detected in cells treated with the statistical mixture of stereoisomers of the disodium salt disuccinate astaxanthin derivative XVI or with TTNPB as positive control. […]
# [1] = Liver accumulation of free astaxanthin after single oral dose; format: in vivo, male C57BL/6 mice
# Description: Free astaxanthin concentration was also determined, at the same time points as for plasma samples, in liver. Livers were removed from each animal in the pharmacokinetic study after sacrifice, and snap frozen in liquid nitrogen. Liver tissue was prepared for HPLC analysis as described (Jewell, 1999). Therefore, simultaneous examination of liver accumulation of free astaxanthin was performed at the same time points as the plasma analyses. Up to 300 mg of liver from each animal was snap frozen in liquid nitrogen. Tissue homogenization and extraction were performed with a mixture of chloroform/methanol/water, according to the methods of Jewell (1999). Non-esterified, free astaxanthin accumulation in liver was then evaluated by HPLC as described above for plasma samples.
# [2] = test system: connexin 43 protein expression; test: Induction of connexin 43 protein expression (Western blot, 96 hours); format: cell-based, mouse; settings: 96 hours
# Description: In brief, mouse embryonic fibroblast CH3/10T^1/2 cells were treated with the following formulations in a 4 mL cell culture system with media containing 2% calf serum: • 1. TTNPB [p-(E)-2-(5,6,7,8-tetrahydro-5,5,8,8-tetramethyl-2-napthyl) propenyl benzoic acid] 10^−8 M in acetone [positive control for connexin 43 upregulation (4 μL in 4 mL] • 2. Disodium salt disuccinate astaxanthin derivative XVI/H2O at 10^−5 M (40 μl in 4 mL) • 3. Disodium salt disuccinate astaxanthin derivative XVI/H2O at 10^−6 M (4 μl in 4 mL) • 4. Disodium salt disuccinate astaxanthin derivative XVI/H2O at 10^−7 M (1:10 dilution and 4 μl in 4 mL) • 5. Disodium salt disuccinate astaxanthin derivative XVI H2O/ethanol [EtOH] formulation at 10^-5 M (40 μl in 4 mL) • 6. Disodium salt disuccinate astaxanthin derivative XVI H2O/EtOH formulation at 10^−6 M (4 μl in 4 mL) • 7. Sterile H2O control (40 μl in 4 mL) • 8. Sterile H2O/EtOH control (20 μL EtOH, 20 μL H2O in 4 mL) • 9. Media control (4 mL)
# Cells were harvested after 96 hours incubation with test compounds and control solutions. All media solutions were identical in color, however after treatment with the disodium salt disuccinate astaxanthin derivative XVI at both 10^−5 dilutions, the color subjectively changed to an orange-red color. Cells treated with TTNPB appeared striated with light microscopy, evidence of differentiation to myocytes, an expected result in this cell culture system. After harvest and pelleting of cells, tubes containing both 10^−5 disodium salt disuccinate astaxanthin derivative XVI solutions were bright red; both 10^−6 dilution tubes were a pink color. As documented previously for other colored carotenoids, this was subjective evidence for cellular uptake of the test compounds.
# Cells were then lysed, and 50 μg of each protein was electrophoresed on a 10% polyacrylamide gel. The gel was then transferred to a nitrocellulose filter. Total protein was assayed with Coomassie blue staining (FIG. 29; lanes 6, 7, and 9 were smeared secondary to gel transfer, and were not included in the quantitative comparison [FIG. 31)]. […]
# Cx43 protein = Cx43 protein expression by stereoisomer forms (immuno-(Western) blotting, 4 days); format: cell-based, mouse; settings: 1×10^-5 M in 1:2 ethanol/H2O
# Description: (2) Molecular Studies. […] Briefly, mouse embryonic fibroblast C3H10T1/2 cells were cultured in Eagle's basal medium with Earle's salts (Atlanta Biologicals, Atlanta, Ga.), supplemented with 5% fetal calf serum (Atlanta Biologicals, Atlanta, Ga.) and 25 μg/mL gentamicin sulfate (Sigma, St. Louis, Mo.), and incubated at 37° C. in 5% CO2. On the 7th day after seeding in 100 millimeter (mm) dishes, the confluent cells were treated for four days with the disodium salt disuccinate astaxanthin derivatives XVI and then harvested and analyzed for Cx43 protein induction as described. Protein content was measured using the Protein Assay Reagent kit (Pierce Chemical Co., Rockford, Ill.) according to manufacturer's instructions. Cell lysates containing 100 μg of protein were analyzed by Western blotting using the NuPage western blotting kit and apparatus (Invitrogen, Carlsbad, Calif.) and Cx43 protein detected using a rabbit polyclonal antibody (Zymed, San Francisco, Calif.) raised against a synthetic polypeptide corresponding to the C-terminal domain of mouse, human and rat Cx43. Cx43 immunoreactive bands were visualized by chemiluminescence using an anti-rabbit HRP-conjugated secondary antibody (Pierce Chemical Co., Rockford, Ill.). Digital images were obtained with a cooled CCD camera, and quantitative densitometry was then performed (Bio-Rad, Richmond, Calif.).
smiles,measurement,setting,value
"CC1=C(/C=C/C(C)=C/C=C/C(C)=C/C=C/C=C(C)/C=C/C=C(C)/C=C/C2=C(C)C(=O)C(OC(=O)CCC(=O)O)CC2(C)C)C(C)(C)CC(OC(=O)CCC(=O)O)C1=O (racemic) [XVI, Disodium Salt of the Disuccinic Acid Ester of Astaxanthin]",assembly of immunoreactive Cx43 into plaques,C3H/10T1/2 cells,increases assembly of Cx43; also recorded: exhibited assembly of immunoreactive Cx43 into plaques
same,Oral clearance,"[1]; Liver, free astaxanthin, single 500 mg/kg oral dose",15.856 L/h
same,liver vs plasma levels of free astaxanthin at each sampling interval,[1]; single 500 mg/kg oral gavage in emulsion,equal or greater to that in plasma
same,induction of connexin 43 protein expression,"[2]; water 10^-5 to 10^-7 M and EtOH/H2O formulations, vs water and ethanol/water controls",induced connexin 43 protein expression
same,connexin 43 induction level compared with TTNPB positive control,[2]; in water at concentrations greater than 10^-7 and in ethanol/water at 10^-5,higher inductions levels than the positive TTNPB control
same,rank of Cx43 induction level among derivatives,Cx43 protein,highest induction level of Cx43 of all derivatives tested
same,expression of Cx43 protein,"Cx43 protein; four days, vs 1:2 ethanol/H2O alone",increase expression of Cx43 protein
